Test results: patent US9745285B2, “Heteroaryl substituted pyrazoles” (BAYER PHARMA AKTIENGESELLSCHAFT, priority 2013, dated 2017)

Assays:
[1] = biological target: T1, catalytic domain of human Bub1 (amino acids 704-1085) (Homo sapiens, UniProt O43683); assay: Bub1 kinase assay (TR-FRET); assay type: biochemical; conditions: 10 μM ATP, 1 μM peptide substrate, median value, read-out: Biological Assay 1: Bub1 kinase assay median IC50
T1 construct: catalytic domain of human Bub1 (amino acids 704-1085); His6 (N); made in house; host or cells: Hi5 insect cells
Text: Bub1-inhibitory activities of compounds described in the present invention were quantified using a time-resolved fluorescence energy transfer (TR-FRET) kinase assay which measures phosphorylation of the synthetic peptide Biotin-Ahx-VLLPKKSFAEPG (C-terminus in amide form), purchased from e.g. Biosyntan (Berlin, Germany) by the (recombinant) catalytic domain of human Bub1 (amino acids 704-1085), expressed in Hi5 insect cells with an N-terminal His6-tag and purified by affinity—(Ni-NTA) and size exclusion chromatography.
In a typical assay 11 different concentrations of each compound (0.1 nM, 0.33 nM, 1.1 nM, 3.8 nM, 13 nM, 44 nM, 0.15 μM, 0.51 μM, 1.7 μM, 5.9 μM and 20 μM) were tested in duplicate within the same microtiter plate. To this end, 100-fold concentrated compound solutions (in DMSO) were previously prepared by serial dilution (1:3.4) of 2 mM stocks in a clear low volume 384-well source microtiter plate (Greiner Bio-One, Frickenhausen, Germany), from which 50 nL of compounds were transferred into a black low volume test microtiter plate from the same supplier. Subsequently, 2 μL of Bub1 (the final concentration of Bub1 was adjusted depending on the activity of the enzyme lot in order to be within the linear dynamic range of the assay: typically 200 ng/mL were used) in aqueous assay buffer [50 mM Tris/HCl pH 7.5, 10 mM magnesium chloride (MgCl2), 200 mM potassium chloride (KCl), 1.0 mM dithiothreitol (DTT), 0.1 mM sodium orthovanadate, 1% (v/v) glycerol, 0.01% (w/v) bovine serum albumine (BSA), 0.005% (v/v) Trition X-100 (Sigma), 1× Complete EDTA-free protease inhibitor mixture (Roche)] were added to the compounds in the test plate and the mixture was incubated for 15 min at 22° C. to allow pre-equilibration of the putative enzyme-inhibitor complexes before the start of the kinase reaction, which was initiated by the addition of 3 μL 1.67-fold concentrated solution (in assay buffer) of adenosine-triphosphate (ATP, 10 μM final concentration) and peptide substrate (1 μM final concentration). […] Subsequently, the amount of product was evaluated by measurement of the resonance energy transfer from the Eu-chelate-antibody complex recognizing the Phosphoserine residue to the streptavidin-XL665 bound to the biotin moiety of the peptide. To this end, the fluorescence emissions at 620 nm and 665 nm after excitation at 330-350 nm were measured in a TR-FRET plate reader, e.g. a Rubystar or Pherastar (both from BMG Labtechnologies, Offenburg, Germany) or a Viewlux (Perkin-Elmer) and the ratio of the emissions (665 nm/622 nm) was taken as indicator for the amount of phosphorylated substrate. […] IC50 values were calculated by fitting the normalized inhibition data to a 4-parameter logistic equation (Minimum, Maximum, IC50, Hill; Y=Max+(Min−Max)/(1+(X/IC50)Hill)).

[2] = system: HeLa human cervical cancer cell line; assay: Proliferation assay (HeLa cell line, crystal violet); assay type: cell-based; conditions: 96 h, HeLa cells, 4 days incubation, crystal violet staining, median value, read-out: Biological Assay 2: Proliferation assay (HeLa cell line) median IC50
Method: Cultivated tumor cells (cells were ordered from ATCC) were plated at a density of 3000 cells/well in a 96-well multititer plate in 200 μL of growth medium supplemented 10% fetal calf serum. After 24 hours, the cells of one plate (zero-point plate) were stained with crystal violet (see below), while the medium of the other plates was replaced by fresh culture medium (200 μL), to which the test substances were added in various concentrations (0 μM, as well as in the range of 0.001-10 μM; the final concentration of the solvent dimethyl sulfoxide was 0.5%). The cells were incubated for 4 days in the presence of test substances. Cell proliferation was determined by staining the cells with crystal violet: the cells were fixed by adding 20 μL/measuring point of an 11% glutaric aldehyde solution for 15 minutes at room temperature. After three washing cycles of the fixed cells with water, the plates were dried at room temperature. The cells were stained by adding 100 μL/measuring point of a 0.1% crystal violet solution (pH 3.0). […] Absorption was determined by photometry at a wavelength of 595 nm.
The change of cell number, in percent, was calculated by normalization of the measured values to the absorption values of the zero-point plate (=0%) and the absorption of the untreated (0 μm) cells (=100%). The IC50 values were determined by means of a 4 parameter fit.

T1 sequence (O43683 704-1085): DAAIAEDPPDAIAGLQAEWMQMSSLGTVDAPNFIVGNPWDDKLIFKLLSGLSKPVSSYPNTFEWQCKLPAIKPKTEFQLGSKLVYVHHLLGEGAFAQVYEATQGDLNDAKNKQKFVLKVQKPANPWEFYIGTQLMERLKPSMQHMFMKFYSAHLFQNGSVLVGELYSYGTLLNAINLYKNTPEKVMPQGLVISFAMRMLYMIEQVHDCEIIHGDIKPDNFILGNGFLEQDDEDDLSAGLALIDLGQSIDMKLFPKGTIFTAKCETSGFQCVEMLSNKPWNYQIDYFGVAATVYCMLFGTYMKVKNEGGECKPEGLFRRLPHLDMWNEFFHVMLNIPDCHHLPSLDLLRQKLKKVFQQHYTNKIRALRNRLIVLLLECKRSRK

SMILES | IC50 [1] [µM] | IC50 [2] [µM]
COc1cnc(-c2nn(Cc3nnc(C)o3)c(C3CC3)c2C)nc1Nc1ccncc1C(N)=O [Example 2-5-1, 4-[(2-{5-cyclopropyl-4-methyl-1-[(5-methyl-1,3,4-oxadiazol-2-yl)methyl]-1H-pyrazol-3-yl}-5-methoxypyrimidin-4-yl)amino]pyridine-3-carboxamide] | 0.68 | > 10
CCOC(=O)c1cnccc1Nc1nc(-c2nn(Cc3nnc(C)o3)c(C3CC3)c2C)ncc1OC [Example 2-4-2, ethyl 4-[(2-{5-cyclopropyl-4-methyl-1-[(5-methyl-1,3,4-oxadiazol-2-yl)methyl]-1H-pyrazol-3-yl}-5-methoxypyrimidin-4-yl)amino]pyridine-3-carboxylate] | 2.1 | –
COc1cnc(-c2nn(Cc3c(Cl)cnn3C)c(C3CC3)c2C)nc1Nc1ccncc1 [Example 2-1-1, 2-{1-[(4-chloro-1-methyl-1H-pyrazol-5-yl)methyl]-5-cyclopropyl-4-methyl-1H-pyrazol-3-yl}-5-methoxy-N-(pyridin-4-yl)pyrimidin-4-amine] | 0.009 | –
COc1cnc(-c2nn(Cc3c(C)noc3C)c(C3CC3)c2C)nc1Nc1ccncc1C(N)=O [Example 2-2-1, 4-[(2-{5-cyclopropyl-1-[(3,5-dimethyl-1,2-oxazol-4-yl)methyl]-4-methyl-1H-pyrazol-3-yl}-5-methoxypyrimidin-4-yl)amino]nicotinamide] | 0.016 | > 10
